Among the test systems are CAKI-1; SF-539; SN12C; UACC-257; M14; HCT-116; A498; ACHN; OVCAR-5; EKVX; K562; UO-31; 786-0; NCI-H226; OVCAR-3; SK-MEL-28; T47D; DU-145; PC-3.
Common to all, as to assay: growth of human tumour cells (NCI), 48 h

The structures appear in SMILES notation.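 Grown in 96-well plates, cells were treated for 48 hours with each compound at five concentrations. Insufficient inhibition: endpoint recorded as highest concentration tested. GI50 = concentration required for 50% inhibition of growth.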 Active and inactive are the calls of the source. Cut-off read from the data, not from the text of the source: active = GI50 up to about 1.1 µM and inactive = higher.

As to `CCOC(=N)CC(=O)c1ccccc1`, the GI50 in the assay with CAKI-1, with SF-539, in the assay on SN12C, in the assay on UACC-257, in the assay on M14 and in the assay on HCT-116 was > 100 µM (inactive) throughout. In addition, the GI50 in the assay with A498, in the assay with ACHN, in the assay with OVCAR-5, in the assay on EKVX, in the assay on K562 and in the assay on UO-31 was > 100 µM (inactive) in each case. Further, the GI50 with 786-0, with NCI-H226, in the assay on OVCAR-3 and with SK-MEL-28 was > 100 µM (inactive) throughout.
For the molecule `CC(C)=CC(=O)C1c2cccc(O)c2C(=O)c2c(O)cc(C)cc21` (stereo not given), the GI50 with CAKI-1 is 5.25 µM (inactive); in the assay with SF-539, 1.56 µM (inactive); in the assay with SN12C, 5.71 µM (inactive); with UACC-257, 2.88 µM (inactive); with M14 it was 3.25 µM (inactive); in the assay with HCT-116, 2.14 µM (inactive). Further, the GI50 with A498 is 10.7 µM (inactive); in the assay on ACHN, 2.12 µM (inactive); in the assay with OVCAR-5, 2.34 µM (inactive); in the assay with EKVX, 12.6 µM (inactive); in the assay on K562, 2.65 µM (inactive); in the assay on UO-31, 2.09 µM (inactive). For the same molecule, the GI50 was 5.06 µM (inactive) in the assay with 786-0, 2.24 µM (inactive) in the assay with NCI-H226, 1.99 µM (inactive) in the assay on OVCAR-3 and 3.05 µM (inactive) with SK-MEL-28.
Consider `CC(C)(C)OC(=O)N1N=CCC1c1ccccc1` (stereo not given), for which the GI50 with CAKI-1, with SF-539, in the assay with T47D, in the assay with SN12C, with UACC-257 and in the assay on M14 was > 100 µM (inactive) in each case. For the same molecule, the GI50 with HCT-116, in the assay with A498, with ACHN, with OVCAR-5, in the assay with EKVX and with K562 was > 100 µM (inactive) in each case. Moreover, the GI50 in the assay on UO-31, with 786-0, in the assay with NCI-H226, in the assay with OVCAR-3 and with DU-145 was > 100 µM (inactive) in each case.
Consider `COc1ccc(NC(=O)c2cc(OC)cc(OC)c2)cc1`, for which the GI50 is 21.9 µM (inactive) in the assay on CAKI-1; 25.1 µM (inactive) in the assay on SF-539; 67 µM (inactive) with SN12C; 98.4 µM (inactive) in the assay on UACC-257; 47.3 µM (inactive) in the assay on M14; 8.41 µM (inactive) in the assay on HCT-116. Besides, the GI50 in the assay on A498 was 35.4 µM (inactive); with ACHN it was 57.4 µM (inactive); in the assay on OVCAR-5 it was > 59.8 µM (inactive); in the assay on EKVX it was 24.2 µM (inactive); in the assay with K562, 4.74 µM (inactive); in the assay with UO-31, 44 µM (inactive). For the same molecule, the GI50 with 786-0 was > 85.7 µM (inactive); in the assay on NCI-H226, 31.7 µM (inactive); with OVCAR-3 it was 12.1 µM (inactive); with SK-MEL-28 it was 45.7 µM (inactive).
As to `COc1ccc(/N=N/c2c(-c3ccccc3)nn(C(=O)CC(=O)Nc3ccccc3Cl)c2-c2ccccc2)cc1`, the GI50 in the assay with CAKI-1, in the assay with SF-539, in the assay on SN12C, with UACC-257, in the assay on M14 and in the assay on HCT-116 was > 100 µM (inactive) throughout. In addition, the GI50 with A498 is > 100 µM (inactive); with ACHN, > 100 µM (inactive); with OVCAR-5, 97.5 µM (inactive); with EKVX it was > 100 µM (inactive); in the assay on K562, 30.7 µM (inactive); in the assay with UO-31, 42.9 µM (inactive). For the same molecule, the GI50 in the assay on 786-0 is > 100 µM (inactive); with NCI-H226, > 100 µM (inactive); in the assay on OVCAR-3 it was 36.9 µM (inactive); in the assay on SK-MEL-28, > 100 µM (inactive).
Turning to `COc1cc([C@@H]2c3cc4c(cc3[C@@H](NC(=O)c3ccc(N)cc3)C3COC(=O)[C@@H]32)OCO4)cc(OC)c1O` (stereo not given in full), the GI50 with CAKI-1 was 5.4 µM (inactive); with SF-539, 1.02 µM (active); with SN12C, 0.853 µM (active); in the assay with UACC-257, 9.16 µM (inactive); in the assay on M14, 2.72 µM (inactive); with HCT-116 it was 2.47 µM (inactive). Besides, the GI50 with A498 is 1.64 µM (inactive); in the assay with ACHN it was 0.597 µM (active); in the assay on OVCAR-5, 4.49 µM (inactive); in the assay on EKVX it was 3.62 µM (inactive); with K562, 3.52 µM (inactive); in the assay with UO-31, 11.9 µM (inactive). In addition, the GI50 with 786-0 was 1.36 µM (inactive); in the assay with NCI-H226 it was 0.881 µM (active); in the assay on OVCAR-3, 7.46 µM (inactive); with SK-MEL-28, 5.15 µM (inactive).
In the case of `CN(CC(=O)O)c1ncc2c(n1)C=CCC2`, the GI50 in the assay with CAKI-1, in the assay on SF-539, in the assay with SN12C, in the assay with UACC-257, in the assay on M14 and with HCT-116 was > 100 µM (inactive) throughout. Besides, the GI50 in the assay on PC-3, in the assay on A498, in the assay on ACHN, in the assay on OVCAR-5, in the assay on EKVX and with K562 was > 100 µM (inactive) each time. Further, the GI50 in the assay with UO-31, in the assay on 786-0, in the assay with NCI-H226, in the assay on OVCAR-3, with SK-MEL-28 and in the assay with DU-145 was > 100 µM (inactive) each time.
On to `O=C(O)c1cc(/C=C/c2ccc(O)c(O)c2)ccc1O`, for which the GI50 with CAKI-1 was 32.7 µM (inactive); with SF-539 it was > 100 µM (inactive); in the assay with T47D, > 100 µM (inactive); in the assay with SN12C it was > 100 µM (inactive); in the assay with UACC-257, > 100 µM (inactive); in the assay on M14, 45.8 µM (inactive). For the same molecule, the GI50 in the assay on HCT-116 is 40 µM (inactive); in the assay with PC-3 it was > 100 µM (inactive); in the assay on ACHN it was > 100 µM (inactive); in the assay with OVCAR-5, > 100 µM (inactive); in the assay on EKVX, > 100 µM (inactive); in the assay on K562, 20.3 µM (inactive). In addition, the GI50 in the assay with UO-31, in the assay with 786-0, in the assay on NCI-H226, in the assay on OVCAR-3, in the assay with SK-MEL-28 and in the assay with DU-145 was > 100 µM (inactive) in each case.
Regarding `Nc1ncnc2c1nc(Cl)n2C1OC2COP(=O)(O)OC2C1O` (stereo not given), the GI50 is 6.04 µM (inactive) in the assay on CAKI-1; 26.8 µM (inactive) in the assay on SF-539; 2.38 µM (inactive) in the assay with T47D; 12 µM (inactive) with SN12C; 18.9 µM (inactive) in the assay with UACC-257; 6.25 µM (inactive) in the assay with M14. Moreover, the GI50 is 3.09 µM (inactive) in the assay with HCT-116; 1.69 µM (inactive) with A498; 4.99 µM (inactive) in the assay on ACHN; 23.3 µM (inactive) in the assay on OVCAR-5; 22.4 µM (inactive) in the assay on EKVX; 1.01 µM (active) with K562. In addition, the GI50 with UO-31 is 5.87 µM (inactive); in the assay with 786-0 it was 5.04 µM (inactive); in the assay with NCI-H226 it was 3.41 µM (inactive); in the assay with OVCAR-3, 12.2 µM (inactive); in the assay on SK-MEL-28, > 87.9 µM (inactive); with DU-145 it was 6.67 µM (inactive).
On to `O=c1oc2ccccc2c2c(=O)c3ccc(OC/C(=N/O)c4ccc(Cl)cc4)cc3oc12`, for which the GI50 in the assay with CAKI-1 is 10.6 µM (inactive); in the assay on SF-539 it was 7.89 µM (inactive); with T47D, 29.4 µM (inactive); in the assay on SN12C, 19.9 µM (inactive); with UACC-257, 33.9 µM (inactive); in the assay with M14 it was 14.6 µM (inactive). For the same molecule, the GI50 in the assay with HCT-116 was 11.2 µM (inactive); in the assay on PC-3, 7.48 µM (inactive); in the assay on A498, 3.15 µM (inactive); in the assay on ACHN, 5.85 µM (inactive); in the assay with OVCAR-5, 17.3 µM (inactive); in the assay on K562 it was 2 µM (inactive). Further, the GI50 was 14.3 µM (inactive) in the assay with UO-31; 11.4 µM (inactive) with 786-0; 17.4 µM (inactive) in the assay on NCI-H226; 3.62 µM (inactive) in the assay on OVCAR-3; 18.6 µM (inactive) with DU-145.
As to `O=C(CCn1[nH]c(=O)c(Cl)c(Cl)c1=O)NO`, the GI50 with CAKI-1, in the assay with SF-539, in the assay with SN12C, with UACC-257, in the assay on M14 and in the assay with A498 was > 100 µM (inactive) in each case. The GI50 with ACHN, with OVCAR-5, in the assay on EKVX, in the assay on K562, in the assay with UO-31 and with 786-0 was > 100 µM (inactive) in each case. The GI50 with NCI-H226, with OVCAR-3 and with SK-MEL-28 was > 100 µM (inactive) each time.
In the case of `C=C(C)CC1=C(C(=S)NCCO[Si](C)(C)C(C)(C)C)C(OCC)(OCC)C1=O`, the GI50 in the assay on CAKI-1 is 16.3 µM (inactive); in the assay with SF-539 it was 19.9 µM (inactive); in the assay on T47D it was 11.4 µM (inactive); in the assay on SN12C, 19.7 µM (inactive); with UACC-257, 16.9 µM (inactive); with M14, 18.3 µM (inactive). Moreover, the GI50 was 18.2 µM (inactive) in the assay with HCT-116; 14.8 µM (inactive) in the assay on PC-3; 21.7 µM (inactive) in the assay on A498; 18 µM (inactive) in the assay with ACHN; 14 µM (inactive) with OVCAR-5; 16.6 µM (inactive) in the assay with EKVX. Also, the GI50 is 18.5 µM (inactive) in the assay on UO-31; 16.6 µM (inactive) in the assay on 786-0; > 10 µM (inactive) in the assay with NCI-H226; 15.5 µM (inactive) in the assay with SK-MEL-28; 23 µM (inactive) in the assay on DU-145.

The record behind these values is ChEMBL document CHEMBL1201862, “PubChem BioAssay data set” (2004).
